From PubChem BioAssay (NCI)
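48-hour exposure; five concentrations; linearly interpolated endpoints. TGI: total growth inhibition.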

Key:
Assay in all cases: growth of human tumour cells (NCI), 48 h
HCC-2998 colon = system: HCC-2998 colon
SK-MEL-5 melanoma = system: SK-MEL-5 melanoma
CAKI-1 renal = system: CAKI-1 renal
HOP-62 NSCLC = system: HOP-62 NSCLC
RXF 393 renal = system: RXF 393 renal
K-562 leukemia = system: K-562 leukemia
TK-10 renal = system: TK-10 renal
SK-MEL-28 melanoma = system: SK-MEL-28 melanoma
U251 CNS = system: U251 CNS
COLO 205 colon = system: COLO 205 colon
UACC-62 melanoma = system: UACC-62 melanoma
SNB-19 CNS = system: SNB-19 CNS
SF-295 CNS = system: SF-295 CNS
NCI-H460 lung = system: NCI-H460 lung
HCT-15 colon = system: HCT-15 colon
PC-3 prostate = system: PC-3 prostate
RPMI-8226 leukemia = system: RPMI-8226 leukemia
SW-620 colon = system: SW-620 colon
UO-31 renal = system: UO-31 renal
NCI-H522 lung = system: NCI-H522 lung
NCI/ADR-RES ovarian = system: NCI/ADR-RES ovarian
SK-MEL-2 melanoma = system: SK-MEL-2 melanoma
EKVX NSCLC = system: EKVX NSCLC
OVCAR-8 ovarian = system: OVCAR-8 ovarian
A549 NSCLC = system: A549 NSCLC
NCI-H226 lung = system: NCI-H226 lung
MDA-N = system: MDA-N
KM12 colon = system: KM12 colon
SF-539 CNS = system: SF-539 CNS
HOP-92 NSCLC = system: HOP-92 NSCLC
IGROV1 ovarian = system: IGROV1 ovarian
MDA-MB-435 = system: MDA-MB-435
MALME-3M melanoma = system: MALME-3M melanoma
BT-549 breast = system: BT-549 breast
HT29 colon = system: HT29 colon
MOLT-4 leukemia = system: MOLT-4 leukemia
DU-145 prostate = system: DU-145 prostate
HS 578T breast = system: HS 578T breast
SNB-75 CNS = system: SNB-75 CNS
M14 melanoma = system: M14 melanoma
T-47D breast = system: T-47D breast
OVCAR-3 ovarian = system: OVCAR-3 ovarian
ACHN renal = system: ACHN renal
SR leukemia = system: SR leukemia
UACC-257 melanoma = system: UACC-257 melanoma
786-0 renal = system: 786-0 renal
MDA-MB-231 breast = system: MDA-MB-231 breast
SN12C renal = system: SN12C renal
OVCAR-5 ovarian = system: OVCAR-5 ovarian
SF-268 CNS = system: SF-268 CNS
SK-OV-3 ovarian = system: SK-OV-3 ovarian
MCF7 breast = system: MCF7 breast
NCI-H23 lung = system: NCI-H23 lung
CCRF-CEM leukemia = system: CCRF-CEM leukemia
OVCAR-4 ovarian = system: OVCAR-4 ovarian
HL-60(TB) leukemia = system: HL-60(TB) leukemia
A498 renal = system: A498 renal
HCT-116 colon = system: HCT-116 colon

Measured: TGI

CC(NC(=O)C(OC(=O)C(C)NC(=O)OC(C)(C)C)C(C)C)C(=O)OC(C(=O)O)C(C)C (stereo not drawn)
not listed: MCF7 breast | NCI-H23 lung | CCRF-CEM leukemia | OVCAR-4 ovarian | HL-60(TB) leukemia | A498 renal | HCT-116 colon
> 100 µM: all other assays above

N=C(N)C1CN(CCc2cnc[nH]2)C(=O)NC1=O (stereo not drawn)
not listed: K-562 leukemia | NCI/ADR-RES ovarian | SK-MEL-2 melanoma | NCI-H226 lung | T-47D breast | MDA-MB-231 breast
> 100 µM: all other assays above
